According to ChEMBL document CHEMBL1806470, “Synthesis and antiglycation potentials of bergenin derivatives” (Bioorg Med Chem Lett, 2011):

Columns and labels:
[1] = molecular target: T1, Albumin (Bos taurus, UniProt P02769); experiment: Antiglycation activity in bovine serum albumin assessed as inhibition of fructosamines formation at 200 uM in presence of glucose; details: cattle
[2] = Antiglycation activity assessed as inhibition of advanced glycation end product formation at 200 uM; type: physicochemical
[3] = Antioxidant activity assessed as ABTS free radical scavenging activity
[4] = Antiglycation activity assessed as inhibition of Schiff-base formation at 200 uM; type: physicochemical
[5] = Antiglycation activity assessed as inhibition of Schiff-base formation; type: physicochemical
[6] = molecular target: T1, Albumin; experiment: Antiglycation activity in bovine serum albumin assessed as inhibition of fructosamines formation in presence of glucose
[7] = Antiglycation activity assessed as inhibition of dicarbonyl compounds formation at 200 uM; type: physicochemical
[8] = Antiglycation activity assessed as inhibition of dicarbonyl compounds formation; type: physicochemical
[9] = Antiglycation activity assessed as inhibition of advanced glycation end product formation; type: physicochemical

T1 sequence (P02769 whole entry): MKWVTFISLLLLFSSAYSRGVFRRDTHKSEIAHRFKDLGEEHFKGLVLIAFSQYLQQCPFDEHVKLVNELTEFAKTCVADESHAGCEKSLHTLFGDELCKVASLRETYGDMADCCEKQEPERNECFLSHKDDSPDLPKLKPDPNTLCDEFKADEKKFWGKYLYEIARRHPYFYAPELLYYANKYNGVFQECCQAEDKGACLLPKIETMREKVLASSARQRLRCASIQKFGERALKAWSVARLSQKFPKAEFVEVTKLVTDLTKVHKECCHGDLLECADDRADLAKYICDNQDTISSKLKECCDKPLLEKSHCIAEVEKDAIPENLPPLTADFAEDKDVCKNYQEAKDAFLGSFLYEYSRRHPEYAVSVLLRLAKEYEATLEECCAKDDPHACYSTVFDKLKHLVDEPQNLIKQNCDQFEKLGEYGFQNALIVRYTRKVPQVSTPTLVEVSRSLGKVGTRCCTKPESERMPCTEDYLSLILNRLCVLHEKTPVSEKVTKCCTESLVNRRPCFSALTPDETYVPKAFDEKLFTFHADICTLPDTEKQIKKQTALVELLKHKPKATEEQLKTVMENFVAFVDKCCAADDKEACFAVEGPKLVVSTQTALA

Row | SMILES | inhibition (INH) ([1]; 200 µM) | inhibition (INH) [2] | IC50 [3] [µM] | inhibition (INH) [4] [%] | IC50 [5] [µM] | inhibition at 200 µM [1] [%] | IC50 [6] [µM] | inhibition (INH) [7] [%] | IC50 [8] [µM] | IC50 [9] [µM]
1 | COc1c(O)cc2c(c1O)[C@@H]1O[C@H](COC(=O)/C=C/c3ccccc3)[C@@H](O)[C@H](O)[C@H]1OC2=O | Not Active | Not Active | 3 | – | – | – | – | – | – | –
2 | COc1c(O)cc2c(c1O)[C@@H]1O[C@H](COC(=O)c3cccc(O)c3O)[C@@H](O)[C@H](O)[C@H]1OC2=O | – | 93.27% | 1.7 | 97.86 | 76 | 26.2 | 322 | 97.77 | 8.95 | 60.8
3 | COc1cc(C(=O)OC[C@H]2O[C@H]3c4c(cc(O)c(OC)c4O)C(=O)O[C@@H]3[C@@H](O)[C@@H]2O)ccc1O | – | Not Active | 4.2 | – | – | 36.5 | – | – | – | –
4 | N=C(N)NN [PIMAGEDINE] | – | 79.67% | – | – | – | – | – | – | – | 88.9
5 | COc1c(O)cc2c(c1O)[C@@H]1O[C@H](CO)[C@@H](O)[C@H](O)[C@H]1OC2=O [BERGENIN] | – | 75.69% | 2 | 109.4 | 0.00054 | 20.6 | 164 | 102.66 | – | 187
6 | COc1cc(C(=O)OC[C@H]2O[C@H]3c4c(cc(O)c(OC)c4O)C(=O)O[C@@H]3[C@@H](O)[C@@H]2O)cc(OC)c1OC | – | Not Active | 3.2 | – | – | 42.1 | – | – | – | –
7 | COc1ccc(C(=O)OC[C@H]2O[C@H]3c4c(cc(O)c(OC)c4O)C(=O)O[C@@H]3[C@@H](O)[C@@H]2O)c([N+](=O)[O-])c1 | – | Not Active | 4.4 | – | – | 17.5 | – | – | – | –
8 | COc1c(O)cc2c(c1O)[C@@H]1O[C@H](COC(=O)c3ccccc3)[C@@H](O)[C@H](O)[C@H]1OC2=O | – | Not Active | 3.5 | – | – | 49.2 | – | – | – | –
9 | COc1c(O)cc2c(c1O)[C@@H]1O[C@H](COC(=O)c3cc(O)c(O)c(O)c3)[C@@H](O)[C@H](O)[C@H]1OC2=O | – | 83.62% | 1.5 | 95.96 | 9.06 | 22.2 | 184 | 102.22 | – | 12.3
10 | COc1c(O)cc2c(c1O)[C@@H]1O[C@H](COC(=O)c3ccc([N+](=O)[O-])cc3)[C@@H](O)[C@H](O)[C@H]1OC2=O | – | Not Active | 3.6 | – | – | 21.4 | – | – | – | –
